TGI data for 14 compounds are collected here from PubChem BioAssay (NCI).

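How tested: cells in 96-well plates exposed to compound for 48 hours at five concentrations. At the TGI there is no net growth.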 Bounds are passed on as bounds.

Common to all, as to assay: inhibition of tumour cell growth, NCI panel, 48 h
Assay [1] relates to HT29 colon.
Assay [2] has as its system RPMI-8226 leukemia.
Assay [3] has as its system HCC-2998 colon.
Assay [4] relates to BT-549 breast.
For assay [5], the system named is SF-295 CNS.
Assay [6] deals with COLO 205 colon.
In assay [7] the test system is SK-MEL-5 melanoma.
Assay [8] deals with SF-539 CNS.
The test system of assay [9] is NCI-H226 lung.
The test system of assay [10] is NCI-H23 lung.

For the compound `COc1ccc(C2=C(N)c3cc(OC)ccc3C2=O)cc1`, the TGI in assay [1], in [2], in assay [3], in [4], in [5] and in assay [6] was more than 100 µM each time. The TGI in [7], in assay [8], in [9] and in [10] was more than 100 µM throughout.

With `O=C(Nc1ccccc1C(=O)O)C(=Cc1ccccc1O)NC(=O)c1ccccc1`, the TGI in [1], in assay [2], in [3], in assay [4], in [5] and in [6] was more than 100 µM throughout. Further, the TGI in [7], in assay [8], in assay [9] and in assay [10] was more than 100 µM in each case.

In the case of `O=C(O)CCC(NC(=O)/C(=C/c1ccccc1)NC(=O)c1ccccc1)C(=O)O` (configuration not stated), the TGI in assay [1], in assay [2], in assay [3], in [4], in assay [5] and in assay [6] was more than 100 µM throughout. Further, the TGI in [7], in [8], in assay [9] and in [10] was more than 100 µM each time.

As for `COc1ccc(OC)c([N+](=O)[O-])c1-c1nc2sc(C)cn2c1/C=N/N=C(N)N`, the TGI in [1] was 50.1 µM; in [2], more than 100 µM; in assay [3], 60.3 µM; in [4] it was 41.9 µM; in assay [5] it was 57.1 µM; in assay [7] it was 49.9 µM. Further, the values for the TGI in [8], in [9] and in [10] were more than 100 µM, 92.7 µM and 66 µM, respectively.

In the case of `C[C@@H]1CC(=O)[C@@]2(C)[C@](O)(CCC3O[C@]32C)[C@@]12CC(c1ccoc1)OC2=O` (some centres not stated), the TGI in [1], in assay [2], in assay [3], in [4], in [5] and in assay [6] was more than 100 µM in each case. Moreover, the TGI in [7], in assay [8], in [9] and in [10] was more than 100 µM in each case.

Consider `CCOC(=O)N1c2c(c3ccccc3n2C(=O)OCC)C(=O)C(OC)N1C(=O)OCC` (configuration not stated), for which the TGI is 85.5 µM in assay [1]; more than 100 µM in assay [2]; more than 100 µM in [3]; more than 100 µM in [4]; 59.4 µM in assay [5]; 28.9 µM in assay [6]. Also, the TGI in [7] was 60.7 µM; in [8], 74.7 µM; in assay [9], more than 100 µM; in [10], more than 100 µM.

`CCN(CC)CCC1(C(=O)OC)SCCc2ccc(C)cc21` (configuration not stated): the TGI in [2], in assay [3], in assay [4], in assay [5], in [6] and in assay [7] was more than 100 µM each time. Also, the TGI in [8], in assay [9] and in assay [10] was more than 100 µM throughout.

Consider `NC(=O)c1nnc2c(F)cccc2c1N`, for which the TGI in [1], in assay [2], in assay [3], in [4], in [5] and in [6] was more than 100 µM in each case. The TGI in assay [7], in [8], in [9] and in assay [10] was more than 100 µM in each case.

With `S=C1NNC(=S)NN1`, the TGI in [1] is more than 1 µM; in assay [2] it was more than 1 µM; in [3], more than 1 µM; in assay [4], more than 1 µM; in assay [5], 0.486 µM; in assay [6], more than 1 µM. The TGI in [7], in assay [8], in assay [9] and in assay [10] was more than 1 µM each time.

For `C/C(=N/NC(=O)c1ccccc1Nc1ccccc1C(=O)N/N=C(\C)c1ccc(C)cc1)c1ccc(C)cc1`, the TGI in assay [1], in assay [2], in assay [3], in assay [4], in [5] and in assay [6] was more than 100 µM throughout. Also, the TGI in [7], in assay [9] and in [10] was more than 100 µM throughout.

For `CN1CCN(C2CC(=O)c3c(Cl)sc(Cl)c32)CC1` (configuration not stated), the TGI is 33.7 µM in assay [1]; 15.5 µM in assay [2]; 24.6 µM in [3]; more than 52.2 µM in [4]; more than 31.6 µM in assay [5]; more than 53.4 µM in assay [6]. Moreover, the TGI in assay [7] is more than 56.4 µM; in [8] it was 49.6 µM; in assay [9], more than 65.3 µM; in assay [10], 30.3 µM.

Regarding `COc1ccc2c(-c3csc(-c4c[nH]c5ccccc45)n3)c[nH]c2c1`, the TGI in assay [1] was 7.32 µM; in assay [2], more than 24.5 µM; in assay [3] it was 30.4 µM; in [4] it was more than 100 µM; in assay [5], 35.2 µM; in [6], more than 57.7 µM. In addition, the TGI was 30.6 µM in assay [7], 65.5 µM in assay [8], 45.4 µM in [9] and more than 66.5 µM in [10].

Regarding `c1ccc2c(c1)[C@@H]1O[C@@H]1[C@@]13O[C@@]21[C@H]1O[C@H]1c1ccccc13`, the TGI in [1] came out at 51.9 µM; in assay [2], 33.7 µM; in assay [3], 35.1 µM; in assay [4] it was 30.3 µM; in assay [5], 30.1 µM; in assay [6], 32.8 µM. The TGI is 26.7 µM in [7], 34.9 µM in assay [8], 31.3 µM in assay [9] and 40.1 µM in assay [10].

`Nc1nn2cc(-c3ccccc3)[n+](CC(=O)c3ccccc3)c2s1`: the TGI was more than 100 µM in assay [1]; 37.3 µM in [2]; 31.7 µM in assay [3]; 40.5 µM in assay [4]; more than 100 µM in assay [5]; 29.3 µM in assay [6]. In addition, the TGI was 73.8 µM in assay [7], 42.3 µM in assay [8], more than 100 µM in assay [9] and 51.6 µM in assay [10].
